Reference: patent US9255272B2, “Use of inhibitors of leukotriene B4 receptor BLT2 for treating asthma” (Korea University Research & Business Foundation, priority 2007, dated 2016)

Tested on: OVA-challenged mice
Experiment: Eosinophil infiltration in BAL fluid of OVA-challenged mice
Format: in vivo, mouse
Details: C57BL/6 mice, 1.6 mg/kg i.v. 24 hr and 1 hr before 10% OVA challenge, 48 hr
Experimental: Female BALB/c mice and C57BL/6 mice (7 weeks old; 18-20 g) were obtained from Orientbion Inc. (Seoungnam, Korea). Sensitization and challenge were carried out as described previously with some modification (28). Briefly, female C57BL/6 mice (7 weeks old; 18-20 g) were immunized by intraperitoneal (i.p.) injection of 200 μg ovalbumin (OVA) emulsified in 2.5 mg of adjuvant aluminum hydroperoxide gel (alum) (Pierce, Rockford, Ill.). A second i.p. injection of 20 μg OVA adsorbed onto alum (2.5 mg) was administered 10 days later. After an additional 10 days, mice were exposed to an aerosol of 1% OVA in saline for 30 min daily on 3 consecutive days. On day 25, mice were finally challenged by provocation with 10% OVA aerosol. For inhibition experiments, sense or antisense BLT2 (1.6 mg/kg) was injected intravenously 24 h and then 1 h before the 10% OVA challenge. The mice were then killed on day 27 to assess asthmatic phenotypes. Antisense BLT2 oligonucleotide (5′-[…]-3′ (SEQ ID NO: 15)), sense BLT2 oligonucleotide (5′-[…]-3′ (SEQ ID NO: 16)).
Inflammatory cells in the BAL fluid were collected by centrifugation (1,000 g for 3 min) and washed once in PBS. Cells were counted using a hemocytometer, and viability was assessed by trypan blue exclusion. […]

**Q.** For “antisense BLT2: Antisense BLT2 oligonucleotide 5′-GCTCAGTAGTGTCTCATTCC-3′ (SEQ ID NO: 15) (listed as DNA, chemistry not fully specified)”, which “reduction of eosinophil infiltration in BAL fluids” value is on record?
**A.** The value was about 87%.
